# Results taken from ChEMBL document CHEMBL1201862, “PubChem BioAssay data set” (2004).
#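 Assay format: 96-well plates, 48-hour exposure. GI50 = concentration required for 50% inhibition of growth.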 The source made the active and inactive calls. Cut-off read from the data, not from the text of the source: active = GI50 up to about 1.1 µM and inactive = higher.
# How the values were obtained:
# Test in all cases: NCI-60 cell line screen, 48 h
# [1] = test system: RXF 393
# [2] = test system: MDA-N
# [3] = test system: 786-0
# [4] = test system: MOLT-4
# [5] = test system: Malme-3M
# [6] = test system: SK-MEL-2
# [7] = test system: SF-268
# [8] = test system: TK-10
# [9] = test system: HCC 2998
# [10] = test system: NCI-H522
# [11] = test system: K562
# [12] = test system: U-251
# [13] = test system: SW-620
# [14] = test system: IGROV-1
# [15] = test system: OVCAR-3
# [16] = test system: SF-295
# [17] = test system: NCI/ADR-RES
# [18] = test system: A498
# [19] = test system: SK-OV-3
# [20] = test system: UO-31
# [21] = test system: SR
# [22] = test system: HOP-92
# [23] = test system: SNB-19
# [24] = test system: SK-MEL-5
# [25] = test system: BT-549
# [26] = test system: RPMI-8226
# [27] = test system: LOX IMVI
# [28] = test system: NCI-H23
# [29] = test system: CCRF-CEM
# [30] = test system: PC-3
# [31] = test system: Hs-578T
# [32] = test system: EKVX
# [33] = test system: HCT-116
# [34] = test system: SN12C
# [35] = test system: UACC-62
# [36] = test system: OVCAR-4
# [37] = test system: A549
# [38] = test system: NCI-H226
# [39] = test system: CAKI-1
# [40] = test system: MCF7
# [41] = test system: HCT-15
# [42] = test system: OVCAR-5
# [43] = test system: COLO 205
# [44] = test system: UACC-257
# [45] = test system: M14
# [46] = test system: HOP-62
# [47] = test system: NCI-H460
# [48] = test system: T47D
# [49] = test system: ACHN
# [50] = test system: HT-29
# [51] = test system: SNB-75
# [52] = test system: DU-145
# [53] = test system: HL-60
# [54] = test system: MDA-MB-435
# [55] = test system: SF-539
# [56] = test system: KM12
# [57] = test system: OVCAR-8
# [58] = test system: SK-MEL-28
# [59] = test system: MDA-MB-231
structure (smiles),measurement,setting,value
CCOC(=O)C(C(=O)OCC)=C1NC2(c3ccccc3Nc3ccc(C)cc32)C(C#N)S1 (configuration not stated),GI50,[1],6.68 µM (inactive)
same,GI50,[2],10.6 µM (inactive)
same,GI50,[3],6.79 µM (inactive)
same,GI50,[4],2.4 µM (inactive)
same,GI50,[5],15 µM (inactive)
same,GI50,[6],8.07 µM (inactive)
same,GI50,[7],9.12 µM (inactive)
same,GI50,[8],8.47 µM (inactive)
same,GI50,[9],3.57 µM (inactive)
same,GI50,[10],11.2 µM (inactive)
same,GI50,[11],4.9 µM (inactive)
same,GI50,[12],5.57 µM (inactive)
same,GI50,[13],6.59 µM (inactive)
same,GI50,[14],7.36 µM (inactive)
same,GI50,[15],3.39 µM (inactive)
same,GI50,[16],9.59 µM (inactive)
same,GI50,[17],5.2 µM (inactive)
same,GI50,[18],10.3 µM (inactive)
same,GI50,[19],13.4 µM (inactive)
same,GI50,[20],6.28 µM (inactive)
same,GI50,[21],2.44 µM (inactive)
same,GI50,[22],4.26 µM (inactive)
same,GI50,[23],6.58 µM (inactive)
same,GI50,[24],7.73 µM (inactive)
same,GI50,[25],14 µM (inactive)
same,GI50,[26],2.32 µM (inactive)
same,GI50,[27],12.1 µM (inactive)
same,GI50,[28],3.56 µM (inactive)
same,GI50,[29],4.27 µM (inactive)
same,GI50,[30],3.56 µM (inactive)
same,GI50,[31],14.2 µM (inactive)
same,GI50,[32],8.83 µM (inactive)
same,GI50,[33],5.58 µM (inactive)
same,GI50,[34],3.24 µM (inactive)
same,GI50,[35],9.48 µM (inactive)
same,GI50,[36],5.66 µM (inactive)
same,GI50,[37],3.01 µM (inactive)
same,GI50,[38],11.5 µM (inactive)
same,GI50,[39],11.8 µM (inactive)
same,GI50,[40],3.05 µM (inactive)
same,GI50,[41],6 µM
same,GI50,[42],11.3 µM (inactive)
same,GI50,[43],4.04 µM (inactive)
same,GI50,[44],11.3 µM (inactive)
same,GI50,[45],3.92 µM (inactive)
same,GI50,[46],11.4 µM (inactive)
same,GI50,[47],3.27 µM (inactive)
same,GI50,[48],4.39 µM (inactive)
same,GI50,[49],3.47 µM (inactive)
same,GI50,[50],3.56 µM (inactive)
same,GI50,[51],8.55 µM (inactive)
same,GI50,[52],11.3 µM (inactive)
same,GI50,[53],13.1 µM (inactive)
same,GI50,[54],5.65 µM (inactive)
same,GI50,[55],3.72 µM (inactive)
same,GI50,[56],4.43 µM (inactive)
same,GI50,[57],8.61 µM (inactive)
same,GI50,[58],18.2 µM (inactive)
Cc1nc(C(N)=S)sc1C(/C=C/c1ccc(Cl)c(Cl)c1)=N/NC(C)(C)C,GI50,[1],> 100 µM (inactive)
same,GI50,[2],> 100 µM (inactive)
same,GI50,[3],> 100 µM (inactive)
same,GI50,[4],22.3 µM (inactive)
same,GI50,[6],> 100 µM (inactive)
same,GI50,[7],> 100 µM (inactive)
same,GI50,[8],> 100 µM (inactive)
same,GI50,[9],> 100 µM (inactive)
same,GI50,[10],75.3 µM (inactive)
same,GI50,[12],> 100 µM (inactive)
same,GI50,[13],> 100 µM (inactive)
same,GI50,[14],> 100 µM (inactive)
same,GI50,[16],> 100 µM (inactive)
same,GI50,[17],> 100 µM (inactive)
same,GI50,[59],> 100 µM (inactive)
same,GI50,[19],> 100 µM (inactive)
same,GI50,[20],33.2 µM (inactive)
same,GI50,[22],> 100 µM (inactive)
same,GI50,[23],> 100 µM (inactive)
same,GI50,[24],> 100 µM (inactive)
same,GI50,[25],> 100 µM (inactive)
same,GI50,[27],> 100 µM (inactive)
same,GI50,[28],> 100 µM (inactive)
same,GI50,[29],32.8 µM (inactive)
same,GI50,[30],> 100 µM (inactive)
same,GI50,[31],> 100 µM (inactive)
same,GI50,[32],> 100 µM (inactive)
same,GI50,[33],> 100 µM (inactive)
same,GI50,[34],> 100 µM (inactive)
same,GI50,[35],> 100 µM (inactive)
same,GI50,[36],88.5 µM (inactive)
same,GI50,[37],> 100 µM (inactive)
same,GI50,[38],56.5 µM (inactive)
same,GI50,[39],> 100 µM (inactive)
same,GI50,[40],> 100 µM (inactive)
same,GI50,[41],> 100 µM
same,GI50,[43],> 100 µM (inactive)
same,GI50,[44],> 100 µM (inactive)
same,GI50,[47],> 100 µM (inactive)
same,GI50,[49],> 100 µM (inactive)
same,GI50,[50],> 100 µM (inactive)
same,GI50,[51],> 100 µM (inactive)
same,GI50,[52],> 100 µM (inactive)
same,GI50,[53],61.8 µM (inactive)
same,GI50,[54],> 100 µM (inactive)
same,GI50,[55],> 100 µM (inactive)
same,GI50,[56],> 100 µM (inactive)
same,GI50,[57],> 100 µM (inactive)
same,GI50,[58],> 100 µM (inactive)
